Test results: paper PMC8588310, “Identification and Preliminary Structure-Activity Relationship Studies of 1,5-Dihydrobenzo[e][1,4]oxazepin-2(3H)-ones That Induce Differentiation of Acute Myeloid Leukemia Cells In Vitro” (Molecules, 2021)
Converted amounts (≈) assume the structure as drawn.

How the values were obtained:
HL-60 cells = experiment: CD11b expression assay by flow cytometry in HL-60 cells; format: cell-based, human; conditions: for EC50: Homo sapiens, HL-60, 96 h, 4-day (96 h) treatment, CD11b upregulation, read-out: EC50 [nM], %CD11b response in HL60 cells; for LipE (lipophilic efficiency): LipE = -LogEC50-cLogP, EC50 of CD11b assay in HL-60
Experimental: (§1) Cells were treated with 1000 structurally diverse small molecules selected from a commercial library. A single point testing concentration of 10 µM was used. After 4 days, cells were stained with a CD11b antibody and analysed using flow cytometry. Compounds upregulating CD11b expression greater than 10% in at least three of the cell lines were considered as potential hits. Hit confirmation was undertaken as follows: first, the hit was re-tested at 10 µM both with the CD11b antibody and an isotype control to account for nonspecific binding. Secondly, the effect of the hit on cell proliferation and viability was evaluated through staining with DAPI to evaluate the number of dead cells, and with acridine orange to detect total cell numbers. Thirdly, the induction of differentiation caused by the compounds was confirmed through morphology assessment with Giemsa staining. Finally, the molecule was resynthesised and fully characterised to confirm structural authenticity. This fresh sample was then retested in the CD11b assay to generate a concentration-response curve. The study of proliferation and morphology was performed on a panel of six cell lines: HL-60, THP-1, OCI-AML3, KG-1, Kasumi-1 and ME-1.
Thus, structure-activity relationship studies were initiated, where the potency of the new analogues was evaluated through concentration-response testing using the CD11b assay in HL-60 cells. Lipophilic efficiency (LipE), which also accounts for lipophilicity, was also used to compare the quality of the analogues. Even though multiple parameters can influence activity in a cell-based assay, LipE is a useful guide to compare analogues.
PE mouse-anti-human-CD11b/Mac-1 (ICRF44, Cat 555388) and PE-mouse-IgG1-κ-isotype control (MOPC-21, Cat 555749) were purchased from BD Bioscience. Cells were suspended in 100 μL growth media (RPMI + 10% FBS + 1% L-glutamine) at a density of 2 × 10^4 cells/well of a V-bottom 96 well plate (Corning, Cat 3894) and grown for 96 h in the presence of compound at the required concentration. After 96 h, the plate was centrifuged, media was removed, and cells were resuspended in 50 µL of blocking buffer (IMDM, no phenol red + 10% FBS) containing 2.5 μL of either CD11b or isotype control antibody and incubated on ice in the dark for 20 min. Cells were washed twice in 200 μL of staining buffer (IMDM, no phenol red + 1% FBS) before being resuspended in 200 μL of staining buffer containing 1 μg/mL of DAPI to help identify dead cells. Flow cytometry data were collected on an Attune NxT and analysed using the Attune NxT software (Life Technologies).

[1] = Metabolic stability in mouse S9 fraction; format: in vitro ADME; conditions: ER = Clint/species flow rate (mice: 90 mL/min/kg)
Experimental: (§2) Determination of semi-thermodynamic solubility, metabolic stability in S9 fraction, Caco-2 permeability and PPB were performed by Cyprotex Ltd. (www.cyprotex.com, accessed on 22 October 2021) using their standard assays and as described on their website.
[22] Extraction ratio (ER) is calculated as the measured intrinsic clearance over the hepatic blood flow of each species (90 mL/min/kg for mice). It has the advantage over other parameters (half-life, clearance) that it is independent of the species used

[2] = Single dose PK study in male CD-1 mice; format: in vivo, mouse; conditions: for bioavailability / half-life / Cmax / Tmax / Vd/F: mouse, whole blood; for bioavailability: 3 mg/kg po vs 0.33 mg/kg iv; for half-life: single dose 3 mg/kg po and 0.33 mg/kg iv, route of parameter not given; for half-life / Cmax / Tmax / Vd/F / Clobs / Clobs/F: blood; for Cmax / Tmax / Vd/F / Clobs/F: single dose 3 mg/kg po; for Vd/F: read-out: Vz/F; for Clobs: single dose 0.33 mg/kg iv
Excerpt: In order to undertake a preliminary assessment of the pharmacokinetic (PK) profile of this compound class, three compounds were deemed to have sufficient intrinsic potency, solubility and in vitro metabolic stability properties to progress into a single dose in vivo PK study. […] […] […] Nonetheless, the clearance of the three compounds was high to moderate, and at this dose the in vitro EC50 was not reached.
Male CD-1 mice were used for the PK studies, with three for each treatment. […] Blood concentration was measured by LC-MS/MS over 24 h.

[3] = Semi-thermodynamic aqueous solubility; format: physicochemical; conditions: thermodynamic from solid
Experimental: as §2

THP-1 cells = experiment: CD11b expression assay by flow cytometry in THP-1 cells; format: cell-based; conditions: Homo sapiens, 96 h, 4-day treatment, resynthesised sample
Experimental: as §1, with “The study of proliferation and morphology was performed on a panel of six cell lines: HL-60, THP-1, OCI-AML3, KG-1, Kasumi-1 and ME-1.” left out
(§3) PE mouse-anti-human-CD11b/Mac-1 (ICRF44, Cat 555388) and PE-mouse-IgG1-κ-isotype control (MOPC-21, Cat 555749) were purchased from BD Bioscience. […] Flow cytometry data were collected on an Attune NxT and analysed using the Attune NxT software (Life Technologies).

OCI-AML3 cells = experiment: CD11b expression assay by flow cytometry in OCI-AML3 cells; format: cell-based; conditions: Homo sapiens, OCI-AML-3, 96 h, 4-day treatment, resynthesised sample
Experimental: as §1, with “The study of proliferation and morphology was performed on a panel of six cell lines: HL-60, THP-1, OCI-AML3, KG-1, Kasumi-1 and ME-1.” left out
as §3

[4] = tested on: HL-60, THP-1, OCI-AML3, KG-1, Kasumi-1 and ME-1; experiment: Cell counts and viability (acridine orange / DAPI); format: cell-based, human; conditions: 10 µM, 4 days
Experimental: as §1, with “The study of proliferation and morphology was performed on a panel of six cell lines: HL-60, THP-1, OCI-AML3, KG-1, Kasumi-1 and ME-1.” left out
Solution 13 containing acridin orange and DAPI was purchased from ChemoMetec (Cat 910-3013). After the appropriate cell treatment, one volume of solution 13 was added into 19 volumes of the premixed cell suspension and analysed using the NucleoCounter® NC-300^TM (ChemoMetec).

[5] = tested on: HL-60, THP-1, OCI-AML3, KG-1, Kasumi-1 and ME-1; experiment: Morphology assessment of stained cytospins; format: cell-based, human; conditions: 10 µM, 4-day treatment, six cell lines
Experimental: as §1
Cells were prepared in staining buffer (IMDM, no phenol red + 2% FBS) at a concentration of approximately 1 × 10^5 cells/mL. […]

porcine neuronal tubulin = molecular target: T1, porcine neuronal tubulin (Sus scrofa, UniProt P02550+P02554); experiment: Microtubule (tubulin) polymerisation cell-free assay; format: biochemical
T1 construct: performed using porcine neuronal tubulin (Cytoskeleton, Inc, Denver, CO, USA, BK006P); purchased Cytoskeleton, Inc BK006P; host or cells: porcine brain (neuronal) tissue
T1 sequence (P02550 whole entry): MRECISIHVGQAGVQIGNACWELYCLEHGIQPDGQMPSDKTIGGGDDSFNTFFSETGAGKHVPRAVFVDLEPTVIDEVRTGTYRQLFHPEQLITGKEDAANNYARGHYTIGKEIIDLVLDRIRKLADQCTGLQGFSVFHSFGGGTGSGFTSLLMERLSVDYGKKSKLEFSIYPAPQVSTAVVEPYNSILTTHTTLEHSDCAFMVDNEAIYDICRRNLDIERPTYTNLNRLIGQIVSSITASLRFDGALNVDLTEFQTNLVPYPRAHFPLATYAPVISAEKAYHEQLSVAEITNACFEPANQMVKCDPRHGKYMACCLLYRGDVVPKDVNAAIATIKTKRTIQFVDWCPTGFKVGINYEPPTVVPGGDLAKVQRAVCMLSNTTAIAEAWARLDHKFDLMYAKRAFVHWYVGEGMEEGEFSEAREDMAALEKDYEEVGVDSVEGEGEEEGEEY
T1 sequence (P02554 whole entry): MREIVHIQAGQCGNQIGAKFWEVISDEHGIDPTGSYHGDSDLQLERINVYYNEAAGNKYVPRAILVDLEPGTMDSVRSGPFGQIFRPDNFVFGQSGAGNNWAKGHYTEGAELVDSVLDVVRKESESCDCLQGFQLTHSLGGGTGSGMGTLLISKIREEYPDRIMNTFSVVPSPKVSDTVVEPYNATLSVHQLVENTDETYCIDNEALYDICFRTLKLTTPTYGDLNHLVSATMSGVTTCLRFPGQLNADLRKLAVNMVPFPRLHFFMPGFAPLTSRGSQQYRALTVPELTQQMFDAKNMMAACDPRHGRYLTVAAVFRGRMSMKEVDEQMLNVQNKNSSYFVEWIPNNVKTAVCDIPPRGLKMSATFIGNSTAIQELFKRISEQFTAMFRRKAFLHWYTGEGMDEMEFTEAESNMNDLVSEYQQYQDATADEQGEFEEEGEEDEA
Experimental: The microtubule polymerisation assay was performed using porcine neuronal tubulin (Cytoskeleton, Inc, Denver, CO, USA, BK006P) as an adaptation of the original method of Shelanski et al. and Lee et al. at Cytoskeleton, Inc.

panel of kinases = experiment: Test against a panel of kinases; format: biochemical; conditions: testing concentrations from 1 to 10 μM
Caco-2 permeability = format: in vitro ADME; conditions: human
Experimental: as §2

DHODH = DHODH (Homo sapiens, UniProt Q02127); experiment: Test against DHODH; format: biochemical; conditions: testing concentrations from 1 to 10 μM
DHODH, sequence (Q02127 whole entry, species assumed): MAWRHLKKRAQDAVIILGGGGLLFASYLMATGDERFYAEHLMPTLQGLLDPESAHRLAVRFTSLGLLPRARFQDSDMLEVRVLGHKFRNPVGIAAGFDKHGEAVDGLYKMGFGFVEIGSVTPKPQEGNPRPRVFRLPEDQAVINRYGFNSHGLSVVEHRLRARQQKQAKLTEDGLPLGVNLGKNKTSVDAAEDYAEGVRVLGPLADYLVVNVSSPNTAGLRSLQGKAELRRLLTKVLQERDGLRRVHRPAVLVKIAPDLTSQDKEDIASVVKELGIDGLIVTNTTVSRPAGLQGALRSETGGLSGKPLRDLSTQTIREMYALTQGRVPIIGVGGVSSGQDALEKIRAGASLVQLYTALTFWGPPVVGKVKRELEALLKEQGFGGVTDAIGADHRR

Plasma protein binding = format: in vitro ADME; conditions: % unbound, read-out: PPB, unbound
Experimental: as §2

FLT3 = molecular target: T2, FLT3 (Homo sapiens, UniProt P36888); experiment: Test against FLT3; format: biochemical; conditions: testing concentrations from 1 to 10 μM
T2 sequence (P36888 27-993): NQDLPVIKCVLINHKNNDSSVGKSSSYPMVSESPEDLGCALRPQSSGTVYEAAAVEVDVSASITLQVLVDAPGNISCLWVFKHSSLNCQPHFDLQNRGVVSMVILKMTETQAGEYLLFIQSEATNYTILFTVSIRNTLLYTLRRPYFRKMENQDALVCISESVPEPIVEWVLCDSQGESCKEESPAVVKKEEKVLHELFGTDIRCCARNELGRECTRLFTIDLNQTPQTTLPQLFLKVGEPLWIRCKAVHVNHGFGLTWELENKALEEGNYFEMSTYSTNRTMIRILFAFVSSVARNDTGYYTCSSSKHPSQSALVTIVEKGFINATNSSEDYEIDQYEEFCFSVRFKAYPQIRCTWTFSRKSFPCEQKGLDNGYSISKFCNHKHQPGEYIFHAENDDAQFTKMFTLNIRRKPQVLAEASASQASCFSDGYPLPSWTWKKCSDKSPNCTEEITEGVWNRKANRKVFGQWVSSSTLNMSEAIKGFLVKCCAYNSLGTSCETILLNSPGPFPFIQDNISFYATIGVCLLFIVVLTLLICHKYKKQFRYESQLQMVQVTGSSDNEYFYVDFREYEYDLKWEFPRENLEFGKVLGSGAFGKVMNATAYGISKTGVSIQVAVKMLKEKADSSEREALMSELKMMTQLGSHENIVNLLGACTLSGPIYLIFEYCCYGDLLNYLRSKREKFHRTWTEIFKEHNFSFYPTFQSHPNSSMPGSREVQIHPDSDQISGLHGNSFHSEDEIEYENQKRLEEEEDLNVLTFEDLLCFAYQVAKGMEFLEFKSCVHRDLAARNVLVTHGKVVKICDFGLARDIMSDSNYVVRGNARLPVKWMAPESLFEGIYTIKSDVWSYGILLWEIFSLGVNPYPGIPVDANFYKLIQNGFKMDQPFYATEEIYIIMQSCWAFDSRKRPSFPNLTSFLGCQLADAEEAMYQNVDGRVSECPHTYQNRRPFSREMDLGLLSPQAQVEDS

[6] = aqueous (buffer or water not specified)

CS(=O)(=O)Nc1cccc(-c2ccc3c(c2)N(CC(F)(F)F)C(=O)COC3)c1 [Compound 11, N-(3-(2-Oxo-1-(2,2,2-trifluoroethyl)-1,2,3,5-tetrahydrobenzo[e][1,4]oxazepin-8-yl)phenyl)methanesulfonamide]
EC50 (HL-60 cells; HL-60 cells): 1900 nM
LipE (lipophilic efficiency) (HL-60 cells): 3.8
ER in mS9 (extraction ratio) [1]: 0.05
bioavailability [2]: 38%
half-life [2]: 5.8 h
Cmax [2]: 160 ng/mL
Tmax [2]: 0.33 h
Vd/F [2]: 73 L/kg
Clobs [2]: 61 mL/min/kg
Clobs/F [2]: 159 mL/min/kg
solubility thermodynamic [3, 6]: 33 µM (≈ 13.7 µg/mL)

CS(=O)(=O)Nc1cccc(-c2ccc3c(c2)N(CC2CC2)C(=O)COC3)c1 [OXS003976, N-(3-(1-(Cyclopropylmethyl)-2-oxo-1,2,3,5-tetrahydrobenzo[e][1,4]oxazepin-8-yl)phenyl)methanesulfonamide]
EC50 (THP-1 cells): 3400 nM
EC50 (OCI-AML3 cells): 950 nM
Cell proliferation and viability [4]: decreased cell proliferation and viability
CD11b expression vs isotype control (HL-60 cells; 10 µM, 4-day treatment, HL-60 cells): upregulated CD11b expression, but not the isotype control
EC50 (HL-60 cells; HL-60 cells): 770 nM
LipE (lipophilic efficiency) (HL-60 cells): 4.3
ER in mS9 (extraction ratio) [1]: 0.54
Cell morphology [5]: induced morphological changes consistent with differentiation
solubility thermodynamic [3, 6]: > 200 µM

CC(C)N1C(=O)COCc2ccc(-c3ccccc3NS(C)(=O)=O)cc21 [Compound 25, N-(2-(1-Isopropyl-2-oxo-1,2,3,5-tetrahydrobenzo[e][1,4]oxazepin-8-yl)phenyl)methanesulfonamide]
Activity in the CD11b assay (HL-60 cells; HL-60 cells, concentration-response): inactive
EC50 (HL-60 cells; HL-60 cells): > 30000 nM
Effect on polymerisation of tubulin (porcine neuronal tubulin; testing concentrations of up to 100 μM): did not have an effect

CCN1C(=O)COCc2ccc(-c3cccc(NS(C)(=O)=O)c3)cc21 [Compound 8, N-(3-(1-Ethyl-2-oxo-1,2,3,5-tetrahydrobenzo[e][1,4]oxazepin-8-yl)phenyl)methanesulfonamide]
EC50 (HL-60 cells; HL-60 cells): 6200 nM
LipE (lipophilic efficiency) (HL-60 cells): 3.8
ER in mS9 (extraction ratio) [1]: 0.25
solubility thermodynamic [3, 6]: > 200 µM

CS(=O)(=O)Nc1cccc(-c2ccc3c(c2)N(C2CCCC2)C(=O)COC3)c1 [Compound 12, N-(3-(1-Cyclopentyl-2-oxo-1,2,3,5-tetrahydrobenzo[e][1,4]oxazepin-8-yl)phenyl)methanesulfonamide]
EC50 (HL-60 cells; HL-60 cells): 650 nM
LipE (lipophilic efficiency) (HL-60 cells): 4.0
ER in mS9 (extraction ratio) [1]: 0.83
solubility thermodynamic [3, 6]: 124 µM (≈ 49.7 µg/mL)

COc1ccc(-c2ccc3c(c2)N(C(C)C)C(=O)COC3)cc1NS(C)(=O)=O [Compound 37, N-(5-(1-Isopropyl-2-oxo-1,2,3,5-tetrahydrobenzo[e][1,4]oxazepin-8-yl)-2-methoxyphenyl)methanesulfonamide]
EC50 (HL-60 cells; HL-60 cells): 1200 nM
LipE (lipophilic efficiency) (HL-60 cells): 4.2
ER in mS9 (extraction ratio) [1]: 1
solubility thermodynamic ([3]; aqueous (not further specified)): > 200 µM

CC(C)N1C(=O)COCc2ccc(-c3cccc(NS(C)(=O)=O)c3)cc21 [OXS007002, N-(3-(1-Isopropyl-2-oxo-1,2,3,5-tetrahydrobenzo[e][1,4]oxazepin-8-yl)phenyl)methanesulfonamide]
Activity against a panel of kinases (panel of kinases): inactive
EC50 (HL-60 cells; HL-60 cells): 620 nM
LipE (lipophilic efficiency) (HL-60 cells): 4.5
ER in mS9 (extraction ratio) [1]: 0.33
efflux ratio (Caco-2 permeability; Caco-2, read-out: EfR, efflux ratio (Caco-2)): 1.3
Papp (Caco-2 permeability; Caco-2 cell permeability): 31 ×10⁻⁶ cm/s
bioavailability [2]: 28%
half-life [2]: 4.9 h
Cmax [2]: 104 ng/mL
Tmax [2]: 0.42 h
Vd/F [2]: 101 L/kg
Clobs [2]: 73 mL/min/kg
Clobs/F [2]: 258 mL/min/kg
IC50 (porcine neuronal tubulin; read-out: IC50, inhibition of tubulin polymerisation): 3600 nM
Activity against DHODH (DHODH): inactive
fraction unbound (Plasma protein binding): 0.11
Activity against FLT3 (FLT3): inactive
solubility thermodynamic [3, 6]: > 200 µM
